“And” between values parts separate entries of the source, which are not always exact repeats. Equal entries are not always repeated.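 Tested at 5 concentrations; 48 h exposure; 96-well plates; endpoints linearly interpolated, else capped at highest concentration. At the GI50, growth is halved. TGI marks complete inhibition of growth.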
Columns and labels:
Test in all cases: growth of human tumour cells (NCI), 48 h
[1] = tested on: MDA-MB-231 breast
[2] = tested on: NCI-H460 lung
[3] = tested on: M14 melanoma
[4] = tested on: MALME-3M melanoma
[5] = tested on: HL-60(TB) leukemia
[6] = tested on: SF-268 CNS
[7] = tested on: A549 NSCLC
[8] = tested on: OVCAR-4 ovarian
[9] = tested on: OVCAR-5 ovarian
[10] = tested on: SK-MEL-2 melanoma

| SMILES | GI50 [1] [µM] | TGI [1] [µM] | GI50 [2] [µM] | TGI [2] [µM] | GI50 [3] [µM] | TGI [3] [µM] | GI50 [4] | TGI [4] | GI50 [5] [µM] | TGI [5] [µM] | GI50 [6] [µM] | TGI [6] | GI50 [7] | TGI [7] [µM] | GI50 [8] | TGI [8] | GI50 [9] [µM] | TGI [9] [µM] | TGI [10] [µM] | GI50 [10] [µM] |
| --- | --- | --- | --- | --- | --- | --- | --- | --- | --- | --- | --- | --- | --- | --- | --- | --- | --- | --- | --- | --- |
| N#C/C(=C1C=C/C(=N\O)C(Cl)=C\1)c1ccccc1 | 2.26 | 6.7 | 2.82 | 11.9 | 3.2 | 14.2 | 7.35 µM | 29.9 µM | 2.19 | 5.67 | 2.19 | 14.3 µM | 3.27 µM | > 100 | 12.7 µM | 51.5 µM | 3.71 | 13.7 | – | – |
| O=C(O)CP(=O)(O)O | – | > 100 | – | > 100 | – | > 100 | – | > 100 µM | – | > 100 | – | > 100 µM | – | > 100 | – | > 100 µM | – | > 100 | > 100 | – |
| O=C(O)c1ccccc1-c1ccccc1C(=O)Nc1ccc2c(c1)[nH]c(=O)c1ccccc12 | – | > 100 | – | > 100 | – | > 100 | – | > 100 µM | – | > 100 | – | > 100 µM | – | > 100 | – | > 100 µM | – | > 100 | > 100 | – |
| N=c1n(Cc2ccccc2)c(N)cc(=O)n1Cc1ccccc1 | 7.45 | 42.5 | 1.08 | 2.75 | 4.72 | 17.8 | 2.94 µM | 6.87 µM | 2.21 | 4.93 | 1.37 | 3.86 µM | 1.19 µM | 2.56 | 2.41 µM | 10.5 µM | 4.27 | 14.9 | 7.18 | 2.79 |
| O=S(=O)(CCNCc1ccc(-c2ccc3ncnc(Nc4ccc(OCc5cccc(F)c5)c(Cl)c4)c3c2)o1)c1ccccc1 | > 25 | > 25 | > 25 | > 25 | > 25 | > 25 | > 25 µM | > 25 µM | > 25 | > 25 | > 25 | > 25 µM | > 25 µM | > 25 | > 25 µM | > 25 µM | > 25 | > 25 | > 25 | > 25 |
| Clc1ccc(C2=NN[C@H](c3cn(-c4ccccc4)nc3-c3ccccc3)C2)cc1 | 5.91 | 24.9 | 4.22 | 16.9 | 7.67 | 32.1 | 5.66 µM | > 100 µM | 19.8 | > 100 | 5.71 | 21.2 µM | 3.37 µM | 14.4 | 4.87 µM | 34.3 µM | – | – | 16.3 | 4.85 |
| CSc1nc(C)c(Br)c(=O)n1C1OC(COC(C)=O)C(OC(C)=O)C(OC(C)=O)C1OC(C)=O (centres undefined) | – | > 100 | – | > 100 | – | > 100 | > 100 µM and 33.4 µM | > 100 µM and 70.4 µM | – | > 100 | – | > 100 µM and 44.2 µM | > 100 µM and 28.5 µM | > 100 | > 100 µM and 20.5 µM | > 100 µM and 52.2 µM | – | > 100 | > 100 | – |
| S=C(c1ccc2c(c1)OCO2)N1CCN(c2cccc(Cl)c2)CC1 | 5.73 | > 100 | 0.387 | > 74.7 | 0.472 | > 100 | 0.478 µM | > 100 µM | 0.195 | 0.642 | 4.65 | > 100 µM | 0.872 µM | > 40.2 | 7.45 µM | > 100 µM | 7.69 | > 100 | > 100 | > 100 |
| CS(=O)(=O)c1ccc(Oc2cc(F)cc(C#N)c2)c2c1[C@H](O)C(F)(F)C2 | > 100 | > 100 | > 100 | > 100 | > 100 | > 100 | > 100 µM | > 100 µM | > 100 | > 100 | > 100 | > 100 µM | > 100 µM | > 100 | > 100 µM | > 100 µM | > 100 | > 100 | > 100 | > 100 |
| Brc1ccccc1C=NC12CC3CC(CC(C3)C1)C2 | – | > 100 | – | > 100 | – | > 100 | – | > 100 µM | – | 4.37 | – | > 100 µM | – | > 100 | – | > 100 µM | – | > 100 | > 100 | – |
| COc1ccc(-c2nc(N3CCOCC3)c3sc(CN(C)c4ncc(C(=O)NO)cn4)cc3n2)cn1 | 0.0282 | 0.331 | < 0.01 | 10.9 | – | – | < 0.01 µM | 0.0352 µM | < 0.01 | 1.06 | 0.0178 | 0.204 µM | < 0.01 µM | 0.0625 | 0.0147 µM | 1.82 µM | < 0.01 | 0.0419 | 0.0799 | 0.02 |
| CC(=O)OC1Oc2cc(C)c(C)cc2-c2oc(=O)c(-c3ccc(F)cc3)cc21 (centres undefined) | 8.34 | 65 | 3.9 | 24.4 | 3.99 | > 100 | 5.04 µM | 31.7 µM | 3.71 | > 100 | 9.32 | > 100 µM | 4.79 µM | > 100 | 11.3 µM | 63.9 µM | 6.3 | > 100 | 41.3 | 6.05 |
| C/C(=C\CCc1ccsc1)CC/C=C(\C)CCCN1CCC(CO)CC1 | 1.38 | 2.87 | 1.92 | 3.85 | 1.92 | 3.73 | 1.71 µM | 3.37 µM | 1.94 | 3.99 | 5.06 | 19.4 µM | 2.35 µM | 7.56 | 2.3 µM | 9.5 µM | 2.77 | 11.6 | – | – |
| CCCCCCCCCCCCCCCCCC(=O)OCC(COC1OC(CS(=O)(=O)O)C(O)C(O)C1O)OC(=O)CCCCCCCCCCCCCCCCC (centres undefined) | – | > 100 | – | > 100 | – | > 100 | – | > 100 µM | – | > 100 | – | > 100 µM | – | > 100 | – | > 100 µM | – | > 100 | – | – |

Reference: PubChem BioAssay (NCI)
